Measured values taken from PubChem BioAssay AID1053178 (The Scripps Research Institute Molecular Screening Center, 2014).
Calls of active or inactive are those of the source.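 The calls were made as follows: active = IC50 at or below 10 µM; inactive = IC50 above 10 µM.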

Target: Trace amine-associated receptor 1 (Homo sapiens) (UniProt Q96RJ0)
Experiment: TAAR1 antagonists lowering PEA-driven cAMP, late-stage follow-up, cell-based, fluorescence, human, MDRUN002 (AID 1053178)
Details: CHO TAAR1 cells, cAMP TR-FRET, PEA-stimulated antagonism

Chain of Trace amine-associated receptor 1 (Homo sapiens) (Q96RJ0 whole entry, looked up): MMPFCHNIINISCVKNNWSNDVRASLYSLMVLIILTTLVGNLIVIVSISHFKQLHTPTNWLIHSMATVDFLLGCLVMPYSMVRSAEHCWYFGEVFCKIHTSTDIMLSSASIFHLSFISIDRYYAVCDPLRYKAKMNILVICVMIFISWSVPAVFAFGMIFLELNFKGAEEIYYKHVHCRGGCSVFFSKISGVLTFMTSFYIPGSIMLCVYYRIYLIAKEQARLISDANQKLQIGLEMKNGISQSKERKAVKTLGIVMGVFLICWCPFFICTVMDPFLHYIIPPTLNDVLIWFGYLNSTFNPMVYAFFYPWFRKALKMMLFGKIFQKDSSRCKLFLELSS

IC50	SMILES
> 37.4 µM (inactive)	CC(CN1CCCC1Cc1ccccc1)C(=O)c1ccc2c(c1)OCCO2 (configuration not stated)
0.179 µM	N#Cc1c(C(F)(F)F)cc(-c2ccc(Cl)cc2)nc1SCC(=O)N1CCCC1
inactive	N#Cc1c(C(F)(F)F)cc(-c2ccc(Cl)cc2)nc1SCC(=O)N1CCCCCC1
0.00433 µM	N#Cc1c(C(F)(F)F)cc(-c2ccc(Cl)cc2)nc1SCC(=O)Nc1ncccn1

More lines, now with the values behind:

SMILES	IC50
Cc1ccc(C(=O)CCN2CCC(c3ccccc3)C2)cc1 (configuration not stated)	> 37.4 µM (inactive)
O=C(CCN1CCC(c2ccccc2)C1)c1ccccc1 (configuration not stated)	> 37.4 µM (inactive)
COc1cc(C(=O)CCN2CCC(c3ccccc3)C2)cc(OC)c1OC (configuration not stated)	> 37.4 µM (inactive)
